Source: patent US8188100B2, “Adenosine derivatives as A2A receptor agonists” (Novartis AG, priority 2006, dated 2012)

Target: adenosine A2A receptor (Homo sapiens, UniProt P29274)
Assay: adenosine A2A receptor agonist assay (method of Murphree et al.)
Assay type: binding
Conditions: method described by Murphree et al., Mol Pharmacol, Vol. 61, pp. 455-462 (2002)
Description: Compounds of formula (I) and their pharmaceutically acceptable salts are useful as pharmaceuticals. In particular, they activate the adenosine A2A receptor, i.e., they act as A2A receptor agonists.

Sequence of adenosine A2A receptor (P29274 whole entry): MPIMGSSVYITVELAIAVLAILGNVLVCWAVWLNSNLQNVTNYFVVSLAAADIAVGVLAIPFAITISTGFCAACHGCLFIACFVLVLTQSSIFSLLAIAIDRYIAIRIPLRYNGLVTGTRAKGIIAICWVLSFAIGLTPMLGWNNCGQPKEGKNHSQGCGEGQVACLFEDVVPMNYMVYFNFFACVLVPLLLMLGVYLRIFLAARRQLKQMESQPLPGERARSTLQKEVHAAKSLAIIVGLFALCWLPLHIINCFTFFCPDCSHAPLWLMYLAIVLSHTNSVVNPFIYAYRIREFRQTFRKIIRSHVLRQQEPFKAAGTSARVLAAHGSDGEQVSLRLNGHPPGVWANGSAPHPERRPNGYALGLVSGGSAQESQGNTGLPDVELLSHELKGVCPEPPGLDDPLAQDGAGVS

Ki: 760 nM
SMILES: CCC(=O)N[C@H]1C[C@@H](n2cnc3c(NCC(c4ccccc4)c4ccccc4)nc(N4CC[C@@H](Nc5nc(Cl)nc6c5ncn6[C@@H]5C[C@H](NC(=O)CC)[C@@H](O)[C@H]5O)C4)nc32)[C@H](O)[C@@H]1O [Example 1, {(1S,2R,3S,4R)-4-[2-{(R)-3-[2-Chloro-9-((1R,2S,3R,4S)-2,3-dihydroxy-4-propionylamino-cyclopentyl)-9H-purin-6-ylamino]-pyrrolidin-1-yl}-6-(2,2-diphenyl-ethylamino)-purin-9-yl]-2,3-dihydroxy-cyclopentyl}-propionamide]
